Laboratory results published in ChEMBL document CHEMBL3044741, “Synthesis of novel biologically active methylene derivatives of sydnones” (Med Chem Res, 2013).
Converted amounts (≈) assume the structure as drawn.

Columns and labels:
PC-3 = experiment: Cytotoxicity against human PC3 assessed as cell growth at high concentration; format: functional
Escherichia coli [1] = experiment: Antibacterial activity against Escherichia coli MTCC 443 after 24 hrs by broth dilution method; format: functional; settings: MTCC 443, 24 h
RPMI-8226 = experiment: Cytotoxicity against human RPMI8226 assessed as cell growth at high concentration; format: functional
MOLT-4 = experiment: Cytotoxicity against human MOLT4 assessed as cell growth at high concentration; format: functional
T47D = experiment: Cytotoxicity against human T47D assessed as cell growth at high concentration; format: functional
Escherichia coli [2] = experiment: Antibacterial activity against Escherichia coli MTCC 443 at 250 ug/ml after 24 hrs by Kirby-Bauer method; format: functional; settings: MTCC 443, 24 h, read-out: IZ
BT-549 = experiment: Cytotoxicity against human BT549 assessed as cell growth at high concentration; format: functional
[3] = test system: Human immunodeficiency virus 2; experiment: Antiviral activity against HIV2 ROD infected in MT4 cells assessed as inhibition of virus-induced cytopathogenicity by MTT assay; format: functional, organism-based; settings: Human immunodeficiency virus 2, ISOLATE ROD
U-251 = experiment: Cytotoxicity against human U251 assessed as cell growth at high concentration; format: functional
SN12C = experiment: Cytotoxicity against human SN12C assessed as cell growth at high concentration; format: functional
SK-OV-3 = experiment: Cytotoxicity against human SKOV3 assessed as cell growth at high concentration; format: functional
M14 = experiment: Cytotoxicity against human M14 assessed as cell growth at high concentration; format: functional
CCRF-CEM = experiment: Cytotoxicity against human CCRF-CEM assessed as cell growth at high concentration; format: functional
OVCAR-3 = experiment: Cytotoxicity against human OVCAR3 assessed as cell growth at high concentration; format: functional
OVCAR-8 = experiment: Cytotoxicity against human OVCAR8 assessed as cell growth at high concentration; format: functional
Cytomegalovirus = experiment: Antiviral activity against Cytomegalovirus Davis in HEL cells assessed as reduction in plaque formation; format: functional, organism-based; settings: Human betaherpesvirus 5, Davis
IGROV-1 = experiment: Cytotoxicity against human IGROV1 assessed as cell growth at high concentration; format: functional
LOX IMVI = experiment: Cytotoxicity against human LOXIMVI assessed as cell growth at high concentration; format: functional
SNB-75 = experiment: Cytotoxicity against human SNB75 assessed as cell growth at high concentration; format: functional
SK-MEL-2 = experiment: Cytotoxicity against human SK-MEL-2 assessed as cell growth at high concentration; format: functional
MCF7 = experiment: Cytotoxicity against human MCF7 assessed as cell growth at high concentration; format: functional
A498 = experiment: Cytotoxicity against human A498 assessed as cell growth at high concentration; format: functional
Aspergillus niger [4] = experiment: Antifungal activity against Aspergillus niger MTCC 282; format: functional
Human alphaherpesvirus 3 [5] = experiment: Antiviral activity against Varicella-zoster virus Oka expressing thymidine kinase infected in HEL cells assessed as reduction in plaque formation; format: functional, organism-based; settings: Human alphaherpesvirus 3, strain Oka vaccine
786-0 = experiment: Cytotoxicity against human 786-0 assessed as cell growth at high concentration; format: functional
NCI-H460 = experiment: Cytotoxicity against human NCI-H460 assessed as cell growth at high concentration; format: functional
HOP-92 = experiment: Cytotoxicity against human HOP92 assessed as cell growth at high concentration; format: functional
UO-31 = experiment: Cytotoxicity against human UO31 assessed as cell growth at high concentration; format: functional
DU-145 = experiment: Cytotoxicity against human DU145 assessed as cell growth at high concentration; format: functional
ACHN = experiment: Cytotoxicity against human ACHN assessed as cell growth at high concentration; format: functional
KM12 = experiment: Cytotoxicity against human KM12 assessed as cell growth at high concentration; format: functional
NCI-H226 = experiment: Cytotoxicity against human NCI-H226 assessed as cell growth at high concentration; format: functional
MDA-MB-435 = experiment: Cytotoxicity against human MDA-MB-435 assessed as cell growth at high concentration; format: functional
OVCAR-4 = experiment: Cytotoxicity against human OVCAR4 assessed as cell growth at high concentration; format: functional
Pseudomonas aeruginosa [6] = experiment: Antibacterial activity against Pseudomonas aeruginosa MTCC 424 after 24 hrs by broth dilution method; format: functional; settings: MTCC 424, 24 h
Aspergillus clavatus = experiment: Antifungal activity against Aspergillus clavatus MTCC 1323; format: functional
UACC-257 = experiment: Cytotoxicity against human UACC257 assessed as cell growth at high concentration; format: functional
HOP-62 = experiment: Cytotoxicity against human HOP62 assessed as cell growth at high concentration; format: functional
MDA-MB-468 = experiment: Cytotoxicity against human MDA-MB-468 assessed as cell growth at high concentration; format: functional
Streptococcus pyogenes = experiment: Antibacterial activity against Streptococcus pyogenes MTCC 442 after 24 hrs by broth dilution method; format: functional; settings: MTCC 442, 24 h
SK-MEL-28 = experiment: Cytotoxicity against human SK-MEL-28 assessed as cell growth at high concentration; format: functional
[7] = Cytotoxicity against human NCI-ADR-RES assessed as cell growth at high concentration; format: functional
SK-MEL-5 = experiment: Cytotoxicity against human SK-MEL-5 assessed as cell growth at high concentration; format: functional
SF-268 = experiment: Cytotoxicity against human SF268 assessed as cell growth at high concentration; format: functional
NCI-H23 = experiment: Cytotoxicity against human NCI-H23 assessed as cell growth at high concentration; format: functional
NCI-H322M = experiment: Cytotoxicity against human NCI-H322M assessed as cell growth at high concentration; format: functional
Pseudomonas aeruginosa [8] = experiment: Antibacterial activity against Pseudomonas aeruginosa MTCC 424 at 250 ug/ml after 24 hrs by Kirby-Bauer method; format: functional; settings: MTCC 424, 24 h, read-out: IZ
[9] = Cytotoxicity against human HEL cells; format: cell-based
SW-620 = experiment: Cytotoxicity against human SW620 assessed as cell growth at high concentration; format: functional
Human alphaherpesvirus 3 [10] = experiment: Antiviral activity against thymidine kinase-deficient Varicella-zoster virus infected in HEL cells assessed as reduction in plaque formation; format: functional, organism-based; settings: Human alphaherpesvirus 3, HEL
CAKI-1 = experiment: Cytotoxicity against human Caki1 assessed as cell growth at high concentration; format: functional
A549 = experiment: Cytotoxicity against human A549 assessed as cell growth at high concentration; format: functional
Staphylococcus aureus = experiment: Antibacterial activity against Staphylococcus aureus MTCC 96 at 250 ug/ml after 24 hrs by Kirby-Bauer method; format: functional; settings: MTCC 96, 24 h, read-out: IZ
HCT-15 = experiment: Cytotoxicity against human HCT15 assessed as cell growth at high concentration; format: functional
OVCAR-5 = experiment: Cytotoxicity against human OVCAR5 assessed as cell growth at high concentration; format: functional
Aspergillus niger [11] = experiment: Antifungal activity against Aspergillus niger MTCC 282 at 250 ug/ml after 74 hrs by Kirby-Bauer method; format: functional; settings: MTCC 282, 74 h, read-out: IZ
[12] = Selectivity index, ratio of CC50 for human MT4 cells to IC50 for HIV2 ROD; format: functional

## Cc1ccc(-[n+]2noc([O-])c2CN2CCN(c3cccc(Cl)c3)CC2)cc1
PC-3
  Activity: 70.26%
Escherichia coli [1]
  MIC: 100 µg/mL (≈ 260 µM)
RPMI-8226
  Activity: 72.54%
MOLT-4
  Activity: 88.5%
T47D
  Activity: 72.96%
Escherichia coli [2]
  zone of inhibition at 250 µg/mL: 22 mm
BT-549
  Activity: 98.47%
[3]
  IC50: > 27.4 µg/mL
U-251
  Activity: 82.08%
SN12C
  Activity: 87.71%
SK-OV-3
  Activity: 99.53%
M14
  Activity: 107.94%
CCRF-CEM
  Activity: 72.82%
OVCAR-3
  Activity: 88.44%
OVCAR-8
  Activity: 94.91%
Cytomegalovirus
  EC50: > 20 µg/mL
IGROV-1
  Activity: 98.49%
LOX IMVI
  Activity: 99.09%
SNB-75
  Activity: 99.33%
SK-MEL-2
  Activity: 108.26%
MCF7
  Activity: 92.1%
A498
  Activity: 51.7%
Aspergillus niger [4]
  MIC: 500 µg/mL (≈ 1300 µM)
Human alphaherpesvirus 3 [5]
  EC50: > 20 µg/mL
786-0
  Activity: 101.4%
NCI-H460
  Activity: 89.39%
HOP-92
  Activity: 72.29%
UO-31
  Activity: 61.64%
DU-145
  Activity: 95.5%
ACHN
  Activity: 87.78%
KM12
  Activity: 99.21%
NCI-H226
  Activity: 79.22%
MDA-MB-435
  Activity: 100.2%
OVCAR-4
  Activity: 89.31%
Pseudomonas aeruginosa [6]
  MIC: 150 µg/mL (≈ 390 µM)
Aspergillus clavatus
  MIC: 200 µg/mL (≈ 520 µM)
UACC-257
  Activity: 93.49%
HOP-62
  Activity: 86.8%
MDA-MB-468
  Activity: 80.15%
Streptococcus pyogenes
  MIC: 125 µg/mL (≈ 325 µM)
SK-MEL-28
  Activity: 98.44%
[7]
  Activity: 97.44%
SK-MEL-5
  Activity: 95.3%
SF-268
  Activity: 88.36%
NCI-H23
  Activity: 95.83%
NCI-H322M
  Activity: 106.64%
Pseudomonas aeruginosa [8]
  zone of inhibition at 250 µg/mL: 21 mm
[9]
  CC50: 38.2 µg/mL (≈ 99.3 µM)
SW-620
  Activity: 92.74%
Human alphaherpesvirus 3 [10]
  EC50: > 20 µg/mL
CAKI-1
  Activity: 86.38%
A549
  Activity: 96.53%
Staphylococcus aureus
  zone of inhibition at 250 µg/mL: 22 mm
HCT-15
  Activity: 77.65%
OVCAR-5
  Activity: 94.62%
Aspergillus niger [11]
  zone of inhibition at 250 µg/mL: 23 mm
[12]
  Ratio CC50/IC50: <1

## Cc1ccc(-[n+]2noc([O-])c2CN2CCNCC2)cc1
PC-3
  Activity: 88.56%
Escherichia coli [1]
  MIC: 100 µg/mL (≈ 365 µM)
RPMI-8226
  Activity: 100.12%
MOLT-4
  Activity: 117.17%
T47D
  Activity: 106.04%
Escherichia coli [2]
  zone of inhibition at 250 µg/mL: 21 mm
BT-549
  Activity: 110.58%
[3]
  IC50: > 32.6 µg/mL
U-251
  Activity: 91.33%
SN12C
  Activity: 91.43%
SK-OV-3
  Activity: 97.27%
M14
  Activity: 105.86%
CCRF-CEM
  Activity: 102.79%
OVCAR-3
  Activity: 101.12%
OVCAR-8
  Activity: 104.3%
Cytomegalovirus
  EC50: > 20 µg/mL
IGROV-1
  Activity: 101.72%
LOX IMVI
  Activity: 92.56%
SNB-75
  Activity: 145.71%
SK-MEL-2
  Activity: 114.56%
MCF7
  Activity: 90.74%
A498
  Activity: 91.02%
Aspergillus niger [4]
  MIC: 200 µg/mL (≈ 729 µM)
Human alphaherpesvirus 3 [5]
  EC50: > 20 µg/mL
786-0
  Activity: 105.96%
NCI-H460
  Activity: 95.72%
HOP-92
  Activity: 76.22%
UO-31
  Activity: 70.1%
DU-145
  Activity: 102.16%
ACHN
  Activity: 92.05%
KM12
  Activity: 91.06%
NCI-H226
  Activity: 84.85%
MDA-MB-435
  Activity: 103.5%
OVCAR-4
  Activity: 114.7%
Pseudomonas aeruginosa [6]
  MIC: 50 µg/mL (≈ 182 µM)
Aspergillus clavatus
  MIC: 200 µg/mL (≈ 729 µM)
UACC-257
  Activity: 96.41%
HOP-62
  Activity: 90.65%
MDA-MB-468
  Activity: 101.9%
Streptococcus pyogenes
  MIC: 500 µg/mL (≈ 1820 µM)
SK-MEL-28
  Activity: 105.58%
[7]
  Activity: 99.62%
SK-MEL-5
  Activity: 100.25%
SF-268
  Activity: 95.92%
NCI-H23
  Activity: 101.63%
NCI-H322M
  Activity: 103.75%
Pseudomonas aeruginosa [8]
  zone of inhibition at 250 µg/mL: 23 mm
[9]
  CC50: 46 µg/mL (≈ 168 µM)
SW-620
  Activity: 96.29%
Human alphaherpesvirus 3 [10]
  EC50: > 20 µg/mL
CAKI-1
  Activity: 91.35%
A549
  Activity: 99.61%
Staphylococcus aureus
  zone of inhibition at 250 µg/mL: 17 mm
HCT-15
  Activity: 102.72%
OVCAR-5
  Activity: 96.81%
Aspergillus niger [11]
  zone of inhibition at 250 µg/mL: 25 mm
[12]
  Ratio CC50/IC50: <1
